Reference: the supplement of paper PMC11451515

Test system: SEM cells
Test: cell viability relative to DMSO control; higher = less cytotoxic
Details: 48 h
Method in brief: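 Viability values are per-plate percentages of DMSO wells, with background from cell-free wells. Library compounds in DMSO were pin-dosed, in an 11-point threefold series from 47 μM to 0.79 nM, onto NOMO1 or SEM (500 cells/well) or P12-Ichikawa (1000 cells/well) leukemia cells in 1536-well plates (5 μl). Those cells had been adapted for at least four passages in each medium, and CellTiter-Glo One luminescence was read after 48 h at 37°C.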

[1] = HPLM + 10% dialyzed FBS, 0.000781 µM
[2] = HPLM + 10% dialyzed FBS, 0.00234 µM
[3] = HPLM + 10% dialyzed FBS, 0.00702 µM
[4] = HPLM + 10% dialyzed FBS, 0.0211 µM
[5] = HPLM + 10% dialyzed FBS, 0.0632 µM
[6] = HPLM + 10% dialyzed FBS, 0.19 µM
[7] = HPLM + 10% dialyzed FBS, 0.569 µM
[8] = HPLM + 10% dialyzed FBS, 1.71 µM
[9] = HPLM + 10% dialyzed FBS, 5.12 µM
[10] = HPLM + 10% dialyzed FBS, 15.4 µM
[11] = HPLM + 10% dialyzed FBS, 46.1 µM
[12] = RPMI 5 mM glucose + 10% dialyzed FBS, 0.000781 µM
[13] = RPMI 5 mM glucose + 10% dialyzed FBS, 0.00234 µM
[14] = RPMI 5 mM glucose + 10% dialyzed FBS, 0.00702 µM
[15] = RPMI 5 mM glucose + 10% dialyzed FBS, 0.0211 µM
[16] = RPMI 5 mM glucose + 10% dialyzed FBS, 0.0632 µM
[17] = RPMI 5 mM glucose + 10% dialyzed FBS, 0.19 µM
[18] = RPMI 5 mM glucose + 10% dialyzed FBS, 0.569 µM
[19] = RPMI 5 mM glucose + 10% dialyzed FBS, 1.71 µM
[20] = RPMI 5 mM glucose + 10% dialyzed FBS, 5.12 µM
[21] = RPMI 5 mM glucose + 10% dialyzed FBS, 15.4 µM
[22] = RPMI 5 mM glucose + 10% dialyzed FBS, 46.1 µM
[23] = RPMI 5 mM glucose + 10% FBS, 0.000781 µM
[24] = RPMI 5 mM glucose + 10% FBS, 0.00234 µM
[25] = RPMI 5 mM glucose + 10% FBS, 0.00702 µM
[26] = RPMI 5 mM glucose + 10% FBS, 0.0211 µM
[27] = RPMI 5 mM glucose + 10% FBS, 0.0632 µM
[28] = RPMI 5 mM glucose + 10% FBS, 0.19 µM
[29] = RPMI 5 mM glucose + 10% FBS, 0.569 µM
[30] = RPMI 5 mM glucose + 10% FBS, 1.71 µM
[31] = RPMI 5 mM glucose + 10% FBS, 5.12 µM
[32] = RPMI 5 mM glucose + 10% FBS, 15.4 µM
[33] = RPMI 5 mM glucose + 10% FBS, 46.1 µM

| SMILES | cell viability [1] | cell viability [2] | cell viability [3] | cell viability [4] | cell viability [5] | cell viability [6] | cell viability [7] | cell viability [8] | cell viability [9] | cell viability [10] | cell viability [11] | cell viability [12] | cell viability [13] | cell viability [14] | cell viability [15] | cell viability [16] | cell viability [17] | cell viability [18] | cell viability [19] | cell viability [20] | cell viability [21] | cell viability [22] | cell viability [23] | cell viability [24] | cell viability [25] | cell viability [26] | cell viability [27] | cell viability [28] | cell viability [29] | cell viability [30] | cell viability [31] | cell viability [32] | cell viability [33] |
| --- | --- | --- | --- | --- | --- | --- | --- | --- | --- | --- | --- | --- | --- | --- | --- | --- | --- | --- | --- | --- | --- | --- | --- | --- | --- | --- | --- | --- | --- | --- | --- | --- | --- |
| CC(C)[C@@H](C[S+](=O)([O-])C(C)C)N1C(=O)[C@@](C)(CC(=O)O)C[C@H](c2cccc(Cl)c2)[C@H]1c1ccc(Cl)cc1 | 124% | 107% | 125% | 117% | 115% | 106% | 85.9% | 77.1% | 54.3% | 31.8% | 18.7% | 127% | 109% | 121% | 110% | 128% | 113% | 100% | 70.9% | 47.8% | 26.5% | 18.5% |  |  |  |  |  |  |  |  |  |  |  |
| CCC[C@H](N[C@@H](C)C(=O)N1[C@H](C(=O)O)C[C@@H]2CCCC[C@@H]21)C(=O)OCC | 114% | 111% | 104% | 114% | 120% | 115% | 118% | 112% | 106% | 111% | 105% | 110% | 105% | 108% | 122% | 111% | 110% | 107% | 106% | 125% | 122% | 106% | 107% | 101% | 107% | 110% | 105% | 116% | 104% | 110% | 105% | 98.6% | 102% |
| C[C@@H](O)[C@@H]1[C@H]2[C@@H](C)\C(=C(/N2C1=O)C(=O)OCOC(=O)C(C)(C)C)SC3CN(C3)/C4=N/CCS4 | 74.8% | 95.7% | 99.2% | 112% | 117% | 102% | 101% | 108% | 107% | 97.2% | 82.1% | 82.5% | 109% | 120% | 113% | 122% | 138% | 106% | 113% | 121% | 121% | 85.9% | 88.7% | 114% | 119% | 117% | 101% | 116% | 111% | 125% | 117% | 109% | 72.8% |
| CCC(=O)OCC(=O)[C@@]1(OC(=O)CC)[C@@H](C)C[C@H]2[C@@H]3CCC4=CC(=O)C=C[C@]4(C)[C@@]3(F)[C@@H](O)C[C@@]21C | 78.1% | 99.1% | 93.2% | 98.5% | 100% | 102% | 84.2% | 90.7% | 91.8% | 70.2% | 61.2% | 116% | 115% | 126% | 112% | 115% | 88.5% | 92.6% | 75.3% | 69.7% | 65.9% | 48.8% | 104% | 114% | 116% | 114% | 116% | 95.6% | 87.3% | 71.5% | 79.4% | 69.9% | 50.3% |
| OC(=O)\C1=C\N(C2=CC=C(F)C=C2)C3=C(C=C(F)C(=C3)N4CCNCC4)C1=O | 89.5% | 101% | 100% | 101% | 105% | 90.7% | 82.4% | 89.4% | 86.4% | 90% | 93.9% | 103% | 103% | 112% | 125% | 107% | 111% | 87.5% | 113% | 95.3% | 95.1% | 87.3% | 101% | 108% | 120% | 92.1% | 114% | 112% | 97.2% | 95.7% | 110% | 113% | 103% |
| COc1cc(Nc2ncc(F)c(Nc3ccc4c(n3)NC(=O)C(C)(C)O4)n2)cc(OC)c1OC | 87.1% | 99% | 106% | 123% | 106% | 103% | 95.8% | 57.7% | 6.83% | 4.48% | 4.63% | 95% | 111% | 101% | 95.2% | 89.8% | 104% | 91.2% | 49.4% | 9.48% | 3.83% | 4.35% | 57.5% | 73% | 70.6% | 70.4% | 68.4% | 70.6% | 55% | 34.9% | 3.27% | 3.07% | 3.1% |
| C\C1=C\C(=O)C2=C(C=CC=C2)C1=O | 95.9% | 110% | 102% | 109% | 126% | 123% | 106% | 114% | 111% | 96.1% | 80.4% | 94.7% | 102% | 114% | 114% | 112% | 111% | 117% | 111% | 84.3% | 71.3% | 50.6% | 104% | 101% | 113% | 111% | 113% | 106% | 101% | 89.2% | 95.3% | 95.9% | 59.9% |
| CCN(CC)C(=S)SSC(=S)N(CC)CC | 99.8% | 99.4% | 115% | 108% | 102% | 85.6% | 55.2% | 40.4% | 4.49% | 3.73% | 2.19% | 87.8% | 97.9% | 97.2% | 103% | 99.3% | 76.6% | 44.3% | 33.5% | 3.67% | 2.09% | 1.26% | 74.9% | 74.3% | 78.7% | 79.2% | 73.5% | 55.6% | 48.6% | 32.9% | 2.66% | 1.26% | 0.625% |
| O=C(NC[C@H]1CN(c2ccc(N3CCOCC3=O)cc2)C(=O)O1)c1ccc(Cl)s1 | 89.8% | 107% | 104% | 107% | 104% | 103% | 125% | 108% | 116% | 134% | 118% | 109% | 105% | 118% | 98.9% | 116% | 132% | 120% | 129% | 136% | 134% | 122% | 103% | 113% | 120% | 114% | 102% | 117% | 129% | 109% | 117% | 123% | 115% |
| COc1cc(O)c2c(c1)C1OC1C[C@H](O)[C@H](O)C(=O)/C=C\C[C@H](C)OC2=O (stereo partly specified) | 95.5% | 93.1% | 111% | 108% | 125% | 125% | 101% | 114% | 55.5% | 31.4% | 7.96% | 101% | 119% | 117% | 127% | 109% | 121% | 102% | 110% | 47.6% | 24.4% | 5.3% | 101% | 103% | 108% | 86.9% | 114% | 108% | 117% | 101% | 58% | 30.7% | 4.26% |
| O=C(Nc1cccc(Nc2ncc(Br)c(NCCc3cnc[nH]3)n2)c1)N1CCCC1 | 77.4% | 78.4% | 79.3% | 72.1% | 67.4% | 47.5% | 32.7% | 17.4% | 9.22% | 5.65% | 1.1% | 82.5% | 62.9% | 71% | 64.2% | 66.9% | 38.6% | 26.6% | 12.8% | 7.16% | 3.89% | 1.39% | 87.7% | 77.9% | 80.5% | 75.9% | 69.1% | 41% | 21.1% | 8.73% | 3.21% | 1.59% | 1.07% |
| CCOC(=O)[C@H](CCc1ccccc1)N[C@@H](C)C(=O)N1CCC[C@H]1C(=O)O | 107% | 110% | 102% | 97.3% | 119% | 123% | 107% | 115% | 113% | 112% | 113% | 119% | 105% | 108% | 109% | 111% | 103% | 94.4% | 101% | 103% | 99.2% | 98.5% | 106% | 112% | 104% | 109% | 106% | 112% | 96.6% | 94.5% | 113% | 120% | 94.8% |
| O=C1Nc2ccc(Cl)cc2[C@@](C#CC2CC2)(C(F)(F)F)O1 | 65.1% | 74% | 86.3% | 95% | 86% | 88.4% | 88.8% | 80.2% | 88.9% | 96% | 93.4% | 62.1% | 70% | 89.5% | 81.2% | 82.7% | 78.9% | 85.6% | 81.5% | 81.8% | 84.8% | 54.7% | 71.8% | 69.8% | 82.2% | 84.9% | 89.6% | 84.6% | 84.4% | 87.8% | 85.9% | 91.6% | 63.7% |
| CN1CCC(CC1)COC2=CN=C(N=C2)C3=CC(=CC=C3)CN4/N=C(\C=C/C4=O)C5=CC(=CC=C5)C#N | 78.8% | 105% | 98% | 102% | 112% | 117% | 108% | 104% | 107% | 89.9% | 92.7% | 69.8% | 103% | 110% | 114% | 99.2% | 91.4% | 115% | 104% | 106% | 87.3% | 105% | 67.6% | 87.1% | 85.4% | 66.2% | 67.5% | 75.6% | 79.9% | 74.7% | 66.5% | 74.9% | 73.2% |
